Reference: patent US20250099582A1, “TREATMENT OF PATIENTS DIAGNOSED WITH PANCREATIC DUCTAL ADENOCARCINOMA USING MONOCLONAL ANTIBODIES AGAINST THE EPIDERMAL GROWTH FACTOR RECEPTOR (EGFR)” (INNOCIMAB PTE LTD, priority 2015, published 2025)
Entries after “also recorded” stand apart in the source; their conditions may differ.

How the values were obtained:
[1] = tested on: locally advanced or metastatic pancreatic cancer patients; assay: Randomized clinical trial of gemcitabine plus nimotuzumab versus gemcitabine plus placebo: survival by KRAS status; format: in vivo, human; details: for overall survival (OS), Kaplan-Meier, versus placebo-gemcitabine arm / progression-free-survival (PFS), Kaplan-Meier, versus placebo-gemcitabine arm: nimotuzumab 400 mg i.v. once weekly + gemcitabine 1000 mg/m^2 (d1, 8, 15; q28)
Method: In this clinical trial patients with previously untreated, unresectable, locally advanced or metastatic pancreatic adenocarcinoma received gemcitabine (1000 mg/m^2/30-min iv once weekly (d1, 8, 15; q28)) and nimotuzumab (400 mg 30-min iv once weekly), or placebo until disease progression or unmanageable toxicity. The primary endpoint in this study was overall survival (OS) in the intention-to-treat (ITT) population. The secondary endpoints included progression free survival (PFS), safety, objective response rate (ORR), and Quality of Life (QoL).
(§1) One hundred and ninety two (192) newly diagnosed patients with locally advanced or metastatic pancreatic cancer were randomized and recruited into 2 arms, on the treatment arm patients were administered administered i.v infusion of nimotuzumab at 400 mg dose once a week until progressive disease or unacceptable toxicity and gemcitabine 1000 mg/m^2 once weekly for 3 weeks, followed by a 1-week rest (d1, 8, 15; q28) and on the control arm patients were administered i.v infusion of placebo once a week until progressive disease or unacceptable toxicity and gemcitabine 1000 mg/m^2 once weekly for 3 weeks, followed by a 1-week rest (d1, 8, 15; q28).
Tumor response was assessed using CT (Computed Tomography) or MRI (Magnetic Resonance Imaging) and statistically analyzed using RECIST (Response Evaluation Criteria in Solid Tumors), which provides guidelines for identifying complete response, partial response, stable disease, or progressive disease based on tumor size (see, e.g., Therasse et al., February 2000, “New Guidelines to Evaluate the Response to Treatment in Solid Tumors,” J. Natl. Cancer Inst. 92 (3): 205-216) and overall survival was assessed by the last patient visit, death or loss of follow up.
Out of 192 patients that were randomized into 2 arms, tumor samples were taken from 101 patients (49 from the control arm and 52 from the treatment arm).
To determine if KRAS status correlates with survival the 101 samples were tested. From the KRAS analysis of the 101 samples, 34 samples were KRAS Wild Type (20 from the control arm and 14 from the treatment arm) and 67 samples has the mutation of the KRAS (29 from the control arm and 38 from the treatment arm).
(§2) As a primary endpoint, overall survival (OS) in the intention-to-treat (ITT) population was evaluated. The OS was assessed by the date of the last visit, death or loss of the follow up. The OS was initially calculated for all population and then a subset analysis was run taking into consideration the KRAS status of each of the patients on each treatment arm. Secondary endpoints included progression free survival (PFS), assessed by the day of the progression or the death, safety, assessed by the incidence of adverse events (AE) or serious adverse events (SAE), objective response rate (ORR), assessed by the number of patients on each treatment arm with Complete Response (CR) and Partial Response (PR) to the treatment ((CR+PR)/N, No. patients in the arm)) and Quality of Life (QoL), assessed using EORTC quality of life questionnaire QLQ-C30 version 2.0 (EORTC, NL).
Progression-free-survival (PFS) is defined as the length of time during and after the treatment of a disease, such as cancer, that a patient lives with the disease without worsening of the symptoms and was measured from date of randomization to the occurrence of progression or death or last date of observation without progression.

[2] = Same clinical trial: safety, serious adverse events (SAEs); format: in vivo, human; details: for number of serious adverse events (SAEs) reported in the arm: 93 patients per arm; for patients with serious adverse events (SAEs): of 93 patients in the arm
Method: as §1, §2

PDAC patients = details: cited from earlier work
[3] = patients with KRAS mutated, FIG. 3
[4] = patients with KRAS wild type, FIG. 4

nimotuzumab-gemcitabine: treatment arm: nimotuzumab 400 mg i.v. once a week plus gemcitabine 1000 mg/m^2 once weekly for 3 weeks, 1-week rest
overall survival (OS), Kaplan-Meier, versus placebo-gemcitabine arm [1, 3]: no difference | progression-free-survival (PFS), Kaplan-Meier, versus placebo-gemcitabine arm [1, 3]: no difference | overall survival (OS), Kaplan-Meier, versus placebo-gemcitabine arm [1, 4]: significant difference in favour of the treatment arm; also recorded: significant improvement | progression-free-survival (PFS), Kaplan-Meier, versus placebo-gemcitabine arm [1, 4]: significant difference in favour of the treatment arm; also recorded: significant improvement | overall survival (OS), Kaplan-Meier, versus placebo-gemcitabine arm ([1]; patients with KRAS wild type, FIG. 4, listed as nimotuzumab and gemcitabine): significantly improved | increase of median overall survival compared to control arm (placebo-gemcitabine) ([1]; subgroup of KRAS WT): 6 months | number of serious adverse events (SAEs) reported in the arm [2]: 108 SAEs | patients with serious adverse events (SAEs) [2]: 58.1%

nimotuzumab: anti-EGFR humanized monoclonal antibody produced by the cell line h-R3 deposited as ECACC 951110101
SAE related to study drug: general physical health deterioration, subjects ([2]; nimotuzumab arm): 3.23% | SAE related to study drug: nausea, subjects ([2]; nimotuzumab arm): 2.15% | SAE related to study drug: thrombocytopenia, subjects ([2]; nimotuzumab arm): 2.15% | SAE related to study drug: vomiting, subjects ([2]; nimotuzumab arm): 2.15% | patients with SAEs reported to be related to the study drug ([2]; nimotuzumab arm, of 93 patients): 16.1% | number of SAEs reported to be related to the study drug ([2]; nimotuzumab arm, of the 108 SAEs): 26 SAEs

Nc1ccn([C@@H]2O[C@H](CO)[C@@H](O)C2(F)F)c(=O)n1 [placebo-gemcitabine, gemcitabine, reference compound]
number of serious adverse events (SAEs) reported in the arm [2]: 104 SAEs | patients with serious adverse events (SAEs) [2]: 65.6%

C#Cc1cccc(Nc2ncnc3cc(OCCOC)c(OCCOC)cc23)c1 [Erlotinib]
PDAC patients in whom treatment has shown benefit (PDAC patients; Moore et al. J Clin Oncol. 2007): about 10% | prolongation of median survival (PDAC patients; addition to gemcitabine): 2 weeks
